Experimental data taken from patent US20170150719A1, “FUNGICIDAL PYRAZOLES AND THEIR MIXTURES” (E I DU PONT DE NEMOURS AND COMPANY, priority 2010, published 2017).
Marks after values point to notes of the source that are not given here.

Assays:
Septoria tritici = assay: Test F: wheat leaf blotch, preventive spray on wheat seedlings, visual disease rating; assay type: in vivo; parameters: Test F rating (disease control), value marked *: concentration or dose not given beside the values; conditions: for Test F rating (disease control): 100 = 100% disease control, 0 = no disease control relative to the controls; for Test F rating (disease control), value marked *: rating marked with asterisk (*), other test condition, not explained in the text shown
Source text: (§1) A hyphen (-) indicates no test results.

Septoria nodorum = assay: Test E: Septoria glume blotch, preventive spray on wheat seedlings, visual disease rating; conditions: Septoria glume blotch; for Test E rating (disease control): 100 = 100% disease control, 0 = no disease control relative to the controls; for Test E rating (disease control), value marked *: rating marked with asterisk (*), other test condition, not explained in the text shown
[1] = tested on: Puccinia recondita f. sp. tritici; assay: Test H: wheat leaf rust, preventive spray on wheat seedlings, visual disease rating; conditions: wheat leaf rust; for Test H rating (disease control): sprayed the day before inoculation, 100 = 100% disease control, 0 = no disease control; for Test H rating (disease control), value marked *: preventive, rating marked with asterisk (*), not explained in the text shown
[2] = tested on: Puccinia recondita f. sp. tritici; assay: Test G: wheat leaf rust, spray after inoculation (curative) on wheat seedlings, visual disease rating; assay type: in vivo; conditions: sprayed after inoculation; for Test G rating (disease control): 100 = 100% disease control, 0 = no disease control; for Test G rating (disease control), value marked *: rating marked with asterisk (*), not explained in the text shown
Source text: as §1

Alternaria solani = assay: Test B: tomato early blight, preventive spray on tomato seedlings, visual disease rating; conditions: tomato early blight; for Test B rating (disease control): 100 = 100% disease control, 0 = no disease control relative to the controls; for Test B rating (disease control), value marked *: rating marked with asterisk (*), other test condition, not explained in the text shown
Botrytis cinerea = assay: Test A: tomato Botrytis, preventive spray on tomato seedlings, visual disease rating; conditions: tomato Botrytis; for Test A rating (disease control): 100 = 100% disease control, 0 = no disease control relative to the controls; for Test A rating (disease control), value marked *: rating marked with asterisk (*), other test condition, not explained in the text shown
[3] = tested on: Blumeria graminis f. sp. tritici; assay: Test I: wheat powdery mildew, preventive spray on wheat seedlings, visual disease rating; conditions: wheat powdery mildew; for Test I rating (disease control): 100 = 100% disease control, 0 = no disease control relative to the controls; for Test I rating (disease control), value marked *: rating marked with asterisk (*), not explained in the text shown

Compound	Test F rating (disease control) (Septoria tritici) [%]	Test E rating (disease control) (Septoria nodorum) [%]	Test H rating (disease control) [1] [%]	Test G rating (disease control) [2] [%]	Test B rating (disease control) (Alternaria solani) [%]	Test A rating (disease control) (Botrytis cinerea) [%]	Test I rating (disease control) [3] [%]	Test F rating (disease control), value marked * (Septoria tritici)	Test E rating (disease control), value marked * (Septoria nodorum)	Test H rating (disease control), value marked * [1]	Test G rating (disease control), value marked * [2]	Test B rating (disease control), value marked * (Alternaria solani)	Test A rating (disease control), value marked * (Botrytis cinerea)	Test I rating (disease control), value marked * [3]
Cc1nn(C)c(Nc2ccc(Cl)cc2Cl)c1-c1c(Cl)cccc1Cl [compound 105]	100	0	96	0	0	99	99	–	–	–	–	–	–	–
Cc1nn(C)c(Nc2ccc(F)cc2F)c1-c1ccc(C#N)cc1Cl [compound 107]	100	73	100	8	80	100	97	–	–	–	–	–	–	–
Cc1nn(C)c(Nc2ccc(F)cc2Cl)c1-c1c(Cl)cccc1Cl [compound 109]	100	0	97	0	0	100	100	–	–	–	–	–	–	–
Cc1nn(C)c(Nc2ccc(F)cc2Cl)c1-c1ccc(C#N)cc1Cl [compound 112]	100	40	100	8	37	100	99	–	–	–	–	–	–	–
Cc1nn(C)c(Nc2ccc(F)cc2F)c1-c1c(Cl)cccc1Cl [compound 113]	100	0	98	0	0	100	100	–	–	–	–	–	–	–
Cc1nn(C)c(Nc2ccc(F)cc2Br)c1-c1c(Cl)cccc1Cl [compound 114]	100	0	91	0	0	99	100	–	–	–	–	–	–	–
Cc1nn(C)c(Nc2c(Cl)cc(F)cc2Cl)c1-c1c(Cl)cccc1Cl [compound 115]	99	0	99	0	0	99	93	–	–	–	–	–	–	–
Cc1nn(C)c(Oc2ccc(C#N)cc2F)c1-c1c(F)cccc1Cl [compound 116]	100	99	100	0	33	100	100	–	–	–	–	–	–	–
Cc1nn(C)c(Oc2ccc(C#N)cc2F)c1-c1ccc(Cl)cc1F [compound 119]	100	94	91	0	94	99	99	–	–	–	–	–	–	–
Cc1nn(C)c(Nc2c(Cl)cc(F)cc2Br)c1-c1ccc(F)cc1F [compound 120]	100	94	100	19	80	100	100	–	–	–	–	–	–	–
Cc1nn(C)c(Nc2ccc(F)cc2Cl)c1-c1ccc(Cl)cc1Cl [compound 125]	100	0	98	82	0	99	100	–	–	–	–	–	–	–
Cc1nn(C)c(Oc2ccc(C#N)cc2Cl)c1-c1ccc(Cl)cc1Cl [compound 131]	100	0	96	0	0	100	96	–	–	–	–	–	–	–
Cc1nn(C)c(Nc2c(Cl)cc(F)cc2Cl)c1-c1ccc(Cl)cc1Cl [compound 132]	99	0	96	0	0	93	43	–	–	–	–	–	–	–
Cc1nn(C)c(Nc2ccc(Br)cc2F)c1-c1ccc(F)cc1Cl [compound 135]	100	0	99	9	58	100	100	–	–	–	–	–	–	–
Cc1nn(C)c(Nc2ccc(Br)cc2F)c1-c1ccc(F)cc1F [compound 154]	100	0	98	68	9	100	99	–	–	–	–	–	–	–
Cc1nn(C)c(Nc2c(Cl)cc(Br)cc2Cl)c1-c1ccc(F)cc1F [compound 155]	100	0	97	94	0	100	99	–	–	–	–	–	–	–
Cc1nn(C)c(Nc2c(F)cc(F)cc2Cl)c1-c1ccc(Cl)cc1Cl [compound 156]	100	73	99	31	99	100	99	–	–	–	–	–	–	–
Cc1nn(C)c(Oc2ccc(Cl)cc2F)c1-c1ccc(F)cc1Cl [compound 158]	–	–	–	–	–	–	–	99* %	0* %	98* %	37* %	80* %	100* %	96* %
Cc1nn(C)c(Oc2ccc(C#N)cc2F)c1-c1ccc(F)cc1F [compound 159]	–	–	–	–	–	–	–	100* %	86* %	98* %	0* %	97* %	100* %	96* %
Cc1nn(C)c(Nc2ccc(Cl)cc2F)c1-c1ccc(F)cc1F [compound 160]	100	0	99	0	99	100	100	–	–	–	–	–	–	–
Cc1nn(C)c(Nc2c(F)cc(Br)cc2F)c1-c1ccc(F)cc1Br [compound 163]	–	–	–	–	–	–	–	100* %	60* %	100* %	91* %	77* %	100* %	100* %
Cc1nn(C)c(Nc2c(Cl)cc(Br)cc2Cl)c1-c1ccc(F)cc1Cl [compound 164]	100	0	100	99	0	99	99	–	–	–	–	–	–	–
Cc1nn(C)c(Nc2ccc(Br)cc2Cl)c1-c1ccc(F)cc1F [compound 167]	100	0	92	6	0	100	98	–	–	–	–	–	–	–
Cc1nn(C)c(Nc2c(Cl)cc(Br)cc2Cl)c1-c1ccc(F)cc1Br [compound 168]	100	0	91	97	0	0	48	–	–	–	–	–	–	–
